Results reported in article PMC10439310 (Nature microbiology, 2022).

How the values were obtained:
[1] = target: T1, BsIMPDH (Bacillus subtilis, UniProt P21879); conditions: for binding to BsIMPDH (in words): ITC, 25 °C, 25 μM BsIMPDH
[2] = target: T1, BsIMPDH; test: biochemical
[3] = system: BsIMPDH-ΔCBS; conditions: 10 μM Ap4A
[4] = system: BsIMPDH-ΔCBS; conditions: presence of IMP and NAD+
[5] = target: T1, BsIMPDH; conditions: 50 μM BsIMPDH, 5 mM ligand, 25 °C
[6] = system: E. coli IMPDH; conditions: cited from earlier work
[7] = system: A. gossypii IMPDH; conditions: cited from earlier work
[8] = target: T1, BsIMPDH; test: biochemical; remark: listed apart in the source
[9] = target: T1, BsIMPDH; test: Mass photometry of BsIMPDH tetramer/octamer state; conditions: EC50 of BsIMPDH octamer formation, absence of substrates, 100 nM BsIMPDH
[10] = dinucleotide 10 μM, NAD+ constant, IMP variable

T1 sequence (P21879 whole entry): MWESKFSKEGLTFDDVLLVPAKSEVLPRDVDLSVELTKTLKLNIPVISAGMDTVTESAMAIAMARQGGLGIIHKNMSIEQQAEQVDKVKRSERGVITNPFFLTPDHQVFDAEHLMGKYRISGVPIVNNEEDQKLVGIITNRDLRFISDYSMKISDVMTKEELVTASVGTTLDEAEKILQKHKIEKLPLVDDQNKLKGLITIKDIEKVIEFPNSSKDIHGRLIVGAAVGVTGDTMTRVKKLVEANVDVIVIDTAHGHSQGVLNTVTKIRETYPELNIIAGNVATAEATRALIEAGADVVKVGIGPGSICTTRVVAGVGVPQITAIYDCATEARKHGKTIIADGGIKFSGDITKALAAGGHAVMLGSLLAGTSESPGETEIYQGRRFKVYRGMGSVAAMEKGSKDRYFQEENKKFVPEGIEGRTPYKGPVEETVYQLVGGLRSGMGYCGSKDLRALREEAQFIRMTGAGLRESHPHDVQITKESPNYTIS

Nc1nc2c(ncn2[C@@H]2O[C@H](COP(=O)(O)OP(=O)(O)OP(=O)(O)OC[C@H]3O[C@@H](n4cnc5c(N)ncnc54)[C@H](O)[C@@H]3O)[C@@H](O)[C@H]2O)c(=O)[nH]1 [Ap3G]
binding to BsIMPDH (in words) [1]: No binding

Nc1ncnc2c1ncn2[C@@H]1O[C@H](COP(=O)(O)OP(=O)(O)OP(=O)(O)OP(=O)(O)OC[C@H]2O[C@@H](n3cnc4c(N)ncnc43)[C@H](O)[C@@H]2O)[C@@H](O)[C@H]1O [Ap4A, diadenosine 5’,5’’’-P1,P4-tetraphosphate]
Ki [2]: 15.8 µM
effect on BsIMPDH activity (in words) ([2]; Ap4A 1-100 μM): potently reduced BsIMPDH activity
difference in affinity between Ap4A and ATP ([1]; from ITC Kd values): approximately 700 fold
Ap4A-dependent regulation of enzymatic activity (in words) [3]: insensitive to Ap4A-dependent regulation
Ap4A-dependent tetramer-to-octamer equilibrium (in words) [4]: insensitive to Ap4A-dependent regulation
effect on conformational flexibility of CBS domains (HDX-MS, in words) [5]: restrict the conformational flexibility of the CBS domains
affinity relative to ATP [6]: five-fold higher affinity than ATP
binding (in words) [7]: only with low affinity
Kd [8]: 7.4 ± 2.1 µM
EC50 [9]: 90 µM

Nc1nc2c(ncn2[C@@H]2O[C@H](COP(=O)(O)OP(=O)(O)OP(=O)(O)OP(=O)(O)OC[C@H]3O[C@@H](n4cnc5c(N)ncnc54)[C@@H](O)C3O)[C@H](O)C2O)c(=O)[nH]1 (some centres unmarked) [Ap4G]
binding to BsIMPDH (in words) [1]: No binding

Nc1ncnc2c1ncn2[C@@H]1O[C@H](COP(=O)(O)OP(=O)(O)OP(=O)(O)OP(=O)(O)OP(=O)(O)OC[C@H]2O[C@@H](n3cnc4c(N)ncnc43)[C@H](O)[C@@H]2O)[C@@H](O)[C@H]1O [Ap5A]
effect on BsIMPDH activity (in words) [2, 10]: resulted in BsIMPDH inhibition

Nc1nc2c(ncn2[C@@H]2O[C@H](COP(=O)(O)OP(=O)(O)OP(=O)(O)OP(=O)(O)OP(=O)(O)OC[C@H]3O[C@@H](n4cnc5c(N)ncnc54)[C@H](O)[C@@H]3O)[C@@H](O)[C@H]2O)c(=O)[nH]1 [Ap5G]
binding to BsIMPDH (in words) [1]: No binding
binding (in words) [7]: well

Nc1ncnc2c1ncn2[C@@H]1O[C@H](COP(=O)(O)OP(=O)(O)OP(=O)(O)OP(=O)(O)OP(=O)(O)OP(=O)(O)OC[C@H]2O[C@@H](n3cnc4c(N)ncnc43)[C@H](O)[C@@H]2O)[C@@H](O)[C@H]1O [Ap6A]
effect on BsIMPDH activity (in words) [2, 10]: resulted in BsIMPDH inhibition

Nc1nc2c(ncn2[C@@H]2O[C@H](COP(=O)(O)OP(=O)(O)O)[C@@H](O)[C@H]2O)c(=O)[nH]1 [GDP, guanosine-5’-mono-, di-, triphosphate]
binding (in words) [7]: well
